In test [1] the target is Cyclin-dependent kinase 4/cyclin D1 (Homo sapiens, UniProt P24385). Put plainly: Inhibition of human recombinant CDK4/cyclin D1 using fluoresceinyl-Ahx-Pro-Val-Lys-Arg-Arg-Leu-(3ClPhe)-Gly as substrate after 45 mins by fluorescence polarization assay. It is filed as protein-complex assay.
A further test has as its target CDK2/Cyclin A2 (Homo sapiens, UniProt P24941). Put plainly: Inhibition of human recombinant CDK2/cyclin A using fluoresceinyl-Ahx-Pro-Val-Lys-Arg-Arg-Leu-Phe-Gly as substrate after 45 mins by fluorescence polarization assay. It is filed as protein-complex assay.

Where a SMILES comes first, the peptide text is derived from it. [ ]: non-standard residue; d: D form. The star is where a group is joined. Furoyl(5-pyrazol-1-ylmethyl) = O=C(c1ccc(Cn2cccn2)o1)*; Phe(4-F) = N[C@@H](Cc1ccc(F)cc1)C(=O)O; Picolinoyl(6-Me) = Cc1cccc(C(=O)*)n1; X13 = CN1CCN(Cc2ccc(C(=O)*)o2)CC1; X1 = Cc1cnn(Cc2ccc(C(=O)*)o2)c1; X11 = CCN(CC)Cc1ccc(C(=O)*)o1; X12 = O=C(c1csc(-c2cccs2)n1)*; X14 = O=C(c1csc(-c2ccsc2)n1)*; X15 = CCOc1ccc(CC(=O)*)cc1OCC; X7 = CC(C)COc1ccc(CC(=O)*)cc1; X4 = O=C(c1ccc(Cn2ccnc2)o1)*; Picolinoyl = O=C(c1ccccn1)*; X16 = CCOc1ccc(CC(=O)*)cc1; X9 = CCCOc1ccc(CC(=O)*)cc1; X10 = CCOc1cccc(C(=O)*)n1; X8 = COc1cccc(C(=O)*)n1 Where only a bound is given, the exact number is not on record here.

Sequence of Cyclin-dependent kinase 4/cyclin D1 (P11802 whole entry): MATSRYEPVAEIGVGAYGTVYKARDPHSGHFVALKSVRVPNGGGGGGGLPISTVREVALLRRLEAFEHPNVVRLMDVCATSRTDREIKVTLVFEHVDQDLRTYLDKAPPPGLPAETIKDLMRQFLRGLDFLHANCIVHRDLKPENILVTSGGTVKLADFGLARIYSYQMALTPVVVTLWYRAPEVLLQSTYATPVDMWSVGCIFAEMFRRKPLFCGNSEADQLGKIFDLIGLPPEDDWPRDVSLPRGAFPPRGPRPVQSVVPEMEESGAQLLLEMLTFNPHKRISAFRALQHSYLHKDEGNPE
Sequence of Cyclin-dependent kinase 4/cyclin D1 (P24385 whole entry): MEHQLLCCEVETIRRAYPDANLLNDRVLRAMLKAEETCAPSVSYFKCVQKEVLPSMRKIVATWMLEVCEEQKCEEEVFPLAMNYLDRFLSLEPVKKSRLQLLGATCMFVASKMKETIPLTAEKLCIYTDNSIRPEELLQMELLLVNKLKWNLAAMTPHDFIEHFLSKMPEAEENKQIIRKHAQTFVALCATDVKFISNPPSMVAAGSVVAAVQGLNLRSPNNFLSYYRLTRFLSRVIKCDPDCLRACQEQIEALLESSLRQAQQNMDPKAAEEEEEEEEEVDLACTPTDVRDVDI

Take `CC(C)C[C@H](NC(=O)[C@H](CCCN=C(N)N)NC(=O)c1ccccn1)C(=O)N[C@@H](CC(N)=O)C(=O)N[C@@H](Cc1ccc(F)cc1)C(=O)O` (Picolinoyl-RLN[Phe(4-F)]-OH): the half-inhibitory concentration (IC50) was found to be 48.4 µM in test [1] and 29.2 µM at CDK2/Cyclin A2.
Turning to `CC[C@H](C)[C@H](NC(=O)[C@H](CC(C)C)NC(=O)[C@H](CCCN=C(N)N)NC(=O)c1ccc(Cn2cc(C)cn2)o1)C(=O)N[C@@H](Cc1ccccc1)C(=O)O` (X1-RLIF-OH), the half-inhibitory concentration (IC50) was above 180 µM in test [1] and above 100 µM at CDK2/Cyclin A2.
For `CC[C@H](C)[C@H](NC(=O)[C@H](CC(C)C)NC(=O)[C@H](CCCN=C(N)N)NC(=O)c1ccc(Cn2ccnc2)o1)C(=O)N[C@@H](Cc1ccccc1)C(=O)O` (X4-RLIF-OH), in that order: 159 µM and above 100 µM.
For the compound `CC(C)COc1ccc(CC(=O)N[C@@H](CCCNC(=N)N)C(=O)N[C@@H](CC(C)C)C(=O)N[C@@H](CC(N)=O)C(=O)N[C@@H](Cc2ccc(F)cc2)C(=O)O)cc1` (X7-RLN[Phe(4-F)]-OH), the IC50 (in test [1]; at CDK2/Cyclin A2) was above 100 µM each time.
For the compound `COc1cccc(C(=O)N[C@@H](CCCN=C(N)N)C(=O)N[C@@H](CC(C)C)C(=O)N[C@@H](CC(N)=O)C(=O)N[C@@H](Cc2ccc(F)cc2)C(=O)O)n1` (X8-RLN[Phe(4-F)]-OH), the results for the IC50 (in test [1]; at CDK2/Cyclin A2) were 36.9 µM and 36.4 µM, respectively.
Taken in the same sequence, the figures for `CCCOc1ccc(CC(=O)N[C@@H](CCCN=C(N)N)C(=O)N[C@@H](CC(C)C)C(=O)N[C@@H](CC(N)=O)C(=O)N[C@@H](Cc2ccc(F)cc2)C(=O)O)cc1` (X9-RLN[Phe(4-F)]-OH) were above 50 µM and above 100 µM.
Take `CCOc1cccc(C(=O)N[C@@H](CCCNC(=N)N)C(=O)N[C@@H](CC(C)C)C(=O)N[C@@H](CC(N)=O)C(=O)N[C@@H](Cc2ccc(F)cc2)C(=O)O)n1` (X10-RLN[Phe(4-F)]-OH): the IC50 is above 100 µM in test [1] and 39.7 µM at CDK2/Cyclin A2.
Taken in the same sequence, the figures for `CC[C@H](C)[C@H](NC(=O)[C@H](CC(C)C)NC(=O)[C@H](CCCNC(=N)N)NC(=O)c1ccc(CN(CC)CC)o1)C(=O)N[C@@H](Cc1ccccc1)C(=O)O` (X11-RLIF-OH) were 41.9 µM and 43.5 µM.
Taken in the same sequence, the figures for `CC[C@H](C)[C@H](NC(=O)[C@H](CC(C)C)NC(=O)[C@H](CCCNC(=N)N)NC(=O)c1csc(-c2cccs2)n1)C(=O)N[C@@H](Cc1ccccc1)C(=O)O` (X12-RLIF-OH) were above 180 µM and above 180 µM.
In the case of `CC[C@H](C)[C@H](NC(=O)[C@H](CC(C)C)NC(=O)[C@H](CCCNC(=N)N)NC(=O)c1ccc(CN2CCN(C)CC2)o1)C(=O)N[C@@H](Cc1ccccc1)C(=O)O` (X13-RLIF-OH), the results for the half-maximal inhibitory concentration (IC50) (in test [1]; at CDK2/Cyclin A2) were 43.2 µM and 50.3 µM, respectively.
For the compound `CC[C@H](C)[C@H](NC(=O)[C@H](CC(C)C)NC(=O)[C@H](CCCN=C(N)N)NC(=O)c1csc(-c2ccsc2)n1)C(=O)N[C@@H](Cc1ccccc1)C(=O)O` (X14-RLIF-OH), the figures for the IC50 (in test [1]; on CDK2/Cyclin A2) were above 180 µM and 56.2 µM, respectively.
With `CCOc1ccc(CC(=O)N[C@@H](CCCNC(=N)N)C(=O)N[C@@H](CC(C)C)C(=O)N[C@@H](CC(N)=O)C(=O)N[C@@H](Cc2ccc(F)cc2)C(=O)O)cc1OCC` (X15-RLN[Phe(4-F)]-OH), the IC50 is 3 µM in test [1] and 5.2 µM at CDK2/Cyclin A2.
For `CCOc1ccc(CC(=O)N[C@@H](CCCN=C(N)N)C(=O)N[C@@H](CC(C)C)C(=O)N[C@@H](CC(N)=O)C(=O)N[C@@H](Cc2ccc(F)cc2)C(=O)O)cc1` (X16-RLN[Phe(4-F)]-OH), in that order: above 100 µM and above 100 µM.
As to `CC[C@H](C)[C@H](NC(=O)[C@H](CC(C)C)NC(=O)[C@H](CCCN=C(N)N)NC(=O)c1ccc(Cn2cccn2)o1)C(=O)N[C@@H](Cc1ccccc1)C(=O)O` ({Furoyl(5-pyrazol-1-ylmethyl)}-RLIF-OH), the IC50 (in test [1]; at CDK2/Cyclin A2) was above 100 µM each time.
For `CC[C@H](C)[C@H](NC(=O)[C@H](CC(C)C)NC(=O)[C@H](CCCNC(=N)N)NC(=O)c1cccc(C)n1)C(=O)N[C@@H](Cc1ccccc1)C(=O)O` ({Picolinoyl(6-Me)}-RLIF-OH), the 50% inhibitory concentration (IC50) in test [1] is 85.7 µM; on CDK2/Cyclin A2, above 100 µM.

For the origin of these results see ChEMBL document CHEMBL3098101, “Fragment based discovery of arginine isosteres through REPLACE: towards non-ATP competitive CDK inhibitors” (Bioorg Med Chem, 2014).
